Patent US9226965B2, “Method and composition for treating heart failure” (U.S. DEPARTMENT OF VETERANS AFFAIRS, priority 2007, dated 2016)
“Also recorded” adds a separate entry of the source.

Experiments:
Format in all cases: in vivo, rat
[1] = tested on: left ventricular papillary muscles from SHR with heart failure; test: Mechanical function of isolated left ventricular papillary muscles from treated SHR with heart failure
Method: At the time of sacrifice, left ventricular papillary muscles were dissected free and mounted in an isolated muscle bath containing oxygenated physiologic solution for assessment of mechanical function. Muscle mechanics were measured under computer control of force or length of the preparation. Force and length data were sampled at a rate of 1 kHz and stored on disk for later analysis.
Treatment was continued for 30 days and then the animals studied.
We studied isolated papillary muscle function in the spontaneously hypertensive rat (SHR) which develops heart failure (HF) between 18-24 month of age. […] Following treatment, hearts were isolated and contractile function of LV papillary muscles studied. LV weight and histology were assessed. RNA was isolated from 24 LV samples and subjected to individual Affymetrix (230 2.0) array analysis.

[2] = tested on: left ventricular tissue from SHR with heart failure; test: Affymetrix (230 2.0) array mRNA analysis of left ventricular tissue from treated SHR with heart failure
From the text: Adult male spontaneously hypertensive rats (SHR) rats were purchased as retired breeders from Taconic Inc and boarded in the animal facility at the Boston VA Healthcare system until the time of study (18 to 24 months of age). Each rat was caged alone and allowed free access to chow and water. Animals were monitored several times per week for evidence of tachypnea and labored respiration; when these clinical findings were clearly in evidence, animals were either killed and studied or treated with captopril and/or phenylbutyrate. Groups of animals were treated by adding the angiotensin converting enzyme inhibitor captopril to the drinking water (2 g/L to drinking water) and/or phenylbutyrate to the drinking water (6 g/L to the drinking water; sodium 4-phenylbutyrate (Triple Crown America, Inc.)) when clinical evidence of impaired cardiac function was detected. Treatment was continued for 30 days, the animals closely monitored and then studied. A control group of age-matched, untreated SHR rats was used for comparison. At autopsy, animals were examined for pleural or pericardial effusions, atrial thrombi, and right and left ventricular hypertrophy. The heart was lightly blotted and weight, and individual cardiac chambers were quickly dissected, and chamber weight recorded. Left ventricular tissue samples were rapidly frozen and stored in liquid nitrogen for later mRNA analysis. Subsequently, total RNA was isolated from all left ventricular samples and subjected to individual Affymetrix (230 2.0) array analysis (performed at the Genomics Laboratory of Boston University School of Medicine, Boston Mass.). Six individual animals were included in each experimental group. […] FIGS. 7A-7B provide a visual summary of the quantitative changes in transcripts observed with heart failure (SHR-F) compared to non-failing gene expression (SHR-F vs. SHR-NF) and those effects of treatment (SHR-F+C and SHR-F+CP) relative to un-treated SHR with heart failure. […] FIGS. 8A-8B provide a summary of the number of identified transcripts whose expression was reversed following treatment relative to un-treated SHR with failure. In contrast, phenylbutyrate when combined with captopril treatment reversed expression of more than 47% of heart failure-induced changes in gene expression (p<0.01). […] Analysis of pooled mRNA samples of right ventricular tissue indicate relatively few genes were differentially expressed between LV and RV tissue either with failure or treatment (data not shown). LV and RV are similarly affected by heart failure and amenable to therapeutic treatment effects. Taken together, these findings are consistent with the concept that phenylbutyrate acts as a wide scale inhibitor of transcription to reverse aspects of adverse remodeling and dysfunction associated with heart failure. […] We studied isolated papillary muscle function in the spontaneously hypertensive rat (SHR) which develops heart failure (HF) between 18-24 month of age. Four groups of SHR each consisting of six animals were examined: non-treated SHR with HF (SHR-F), age matched controls without HF (SHR-NF), and SHR with HF that were treated with the ACE inhibitor captopril (2 g/L in drinking water) (SHR-F+C) or captopril combined with the histone deacetylase inhibitor phenylbutyrate (6 g/L in drinking water) for 30 days (SHR-F+CP). […] Following treatment, hearts were isolated and contractile function of LV papillary muscles studied. LV weight and histology were assessed. RNA was isolated from 24 LV samples and subjected to individual Affymetrix (230 2.0) array analysis. Table 3 (below) summarizes the physiological, histological and gene expression findings from this study. […] SHR-F; see FIGS. 7A-7B).

[3] = tested on: SHR with heart failure; test: Serial echocardiographic measurement of LV ejection fraction in SHR; conditions: echocardiography, SHR-F following 30 days of treatment, n=6 per group
From the text: FIGS. 1A-1B illustrate serial echocardiographic measurements in SHR. LV ejection fraction (FIG. 1A) and end-systolic and end-diastolic LV volume (FIG. 1B) of male SHR during the transition to heart failure (12, 17, and 19 months of age). EF, LV ejection fraction (%); ESV, end-systolic volume (ml); EDV, end-diastolic volume (ml). LV function remains compensated until approximately 17 months, and then rapidly declines; mean age at onset of heart failure 19±1 months. FIGS. 2A-2B represent serial echocardiographic measurements (n=6 animals per group) of LV ejection fraction (LVEF) from individual SHR obtained before the onset of heart failure (Baseline), at the time of heart failure (HF) and following 30 days of treatment (Rx) with either captopril (CAPT—FIG. 2A) or combined captopril and phenylbutyrate treatment (CAPT+PB—FIG. 2B). Note marked reduction in LVEF with HF. […] FIG. 3 illustrates LV ejection fraction (LVEF) in non-failing SHR (SHR-NF), SHR with HF (SHR-F) and SHR-F following 30 days of captopril (CAPT) or combined phenylbutyrate and captopril treatment (CAPT+PB). […] Data are mean±SD (n=6 per group).

[4] = tested on: SHR with heart failure; test: Quantitative histological examination of myocardial fibrosis; conditions: Table 3, 30 days treatment, mean ± SD
Method: We studied isolated papillary muscle function in the spontaneously hypertensive rat (SHR) which develops heart failure (HF) between 18-24 month of age. Four groups of SHR each consisting of six animals were examined: non-treated SHR with HF (SHR-F), age matched controls without HF (SHR-NF), and SHR with HF that were treated with the ACE inhibitor captopril (2 g/L in drinking water) (SHR-F+C) or captopril combined with the histone deacetylase inhibitor phenylbutyrate (6 g/L in drinking water) for 30 days (SHR-F+CP). […] Following treatment, hearts were isolated and contractile function of LV papillary muscles studied. LV weight and histology were assessed. RNA was isolated from 24 LV samples and subjected to individual Affymetrix (230 2.0) array analysis. Table 3 (below) summarizes the physiological, histological and gene expression findings from this study. […] SHR-F; see FIGS. 7A-7B).

[5] = tested on: spontaneously hypertensive rats (SHR) with heart failure; test: Body weight, cardiac chamber weights and hypertrophy indices in SHR with heart failure after 30 days of treatment
From the text: Adult male spontaneously hypertensive rats (SHR) rats were purchased as retired breeders from Taconic Inc and boarded in the animal facility at the Boston VA Healthcare system until the time of study (18 to 24 months of age). Each rat was caged alone and allowed free access to chow and water. Animals were monitored several times per week for evidence of tachypnea and labored respiration; when these clinical findings were clearly in evidence, animals were either killed and studied or treated with captopril and/or phenylbutyrate. Groups of animals were treated by adding the angiotensin converting enzyme inhibitor captopril to the drinking water (2 g/L to drinking water) and/or phenylbutyrate to the drinking water (6 g/L to the drinking water; sodium 4-phenylbutyrate (Triple Crown America, Inc.)) when clinical evidence of impaired cardiac function was detected. Treatment was continued for 30 days, the animals closely monitored and then studied. A control group of age-matched, untreated SHR rats was used for comparison. At autopsy, animals were examined for pleural or pericardial effusions, atrial thrombi, and right and left ventricular hypertrophy. The heart was lightly blotted and weight, and individual cardiac chambers were quickly dissected, and chamber weight recorded. Left ventricular tissue samples were rapidly frozen and stored in liquid nitrogen for later mRNA analysis. Subsequently, total RNA was isolated from all left ventricular samples and subjected to individual Affymetrix (230 2.0) array analysis (performed at the Genomics Laboratory of Boston University School of Medicine, Boston Mass.). Six individual animals were included in each experimental group. Table 1 (below) summarizes body weight, cardiac chamber weight, and ratios with and without treatment. Referring to Table 1, four groups of six SHR/group were examined: non-treated SHR with heart failure (SHR-F), age matched controls without heart failure (SHR-NF), and SHR with heart failure treated with the angiotensin converting enzyme inhibitor captopril (2 g/L in drinking water) (SHR-F+C) or captopril combined with the histone deacetylase inhibitor phenylbutyrate (6 g/L in the drinking water) for 30 days (SHR-F+CP). […] It was observed that SHR rats with heart failure had enlarged hearts and increased cardiac chamber weights relative to non-failing SHR group and the captopril treated SHR groups. In contrast, the rats treated with phenylbutyrate and captopril had far smaller cardiac chamber weights. There were no significant differences in body weight among the experimental groups. Indices of cardiac hypertrophy (i.e. LV/body weight ratio and RV/body weight ratios) were reduced with phenylbutyrate treatment. Cardiac chamber weight to tibia length data confirmed these findings.

[6] = Table 2, LV papillary muscle after 30 days treatment, mean ± SD
[7] = Table 3, LV papillary muscle after 30 days treatment, mean ± SD
[8] = Table 3, LV samples, p < 0.01 vs. SHR-F
[9] = of 1431 genes different between SHR-F and SHR-NF, p<0.01 vs. SHR-F
[10] = Table 1, SHR with heart failure, 30 days treatment, mean ± SD, n=6

C[C@H](CS)C(=O)N1CCC[C@H]1C(=O)O [captopril]
quick release force-velocity (F-V) relationships from LV papillary muscles, result in words ([1]; FIG. 6A): not significantly increased
active tension (AT) of LV papillary muscles, result in words ([1]; FIG. 6B): did not improve
contractile function and passive muscle stiffness, result in words ([1]; SHR with heart failure, 30 days treatment): did not restore contractile function or reduce passive muscle stiffness
+dT/dt (rate of tension development) [1, 6]: 28.4 ± 8.0 g/mm^2/s
AT (active tension) [1, 6]: 2.7 ± 0.4 g/mm^2
Kwm (whole muscle stiffness) [1, 6]: 73.9 ± 4.2
V1.0 (shortening velocity) [1, 6]: 0.9 ± 0.2 muscle length/s
AT (active tension) [1, 7]: 2.7 ± 0.4 g/mm^2
V0.1 (shortening velocity) [1, 7]: 0.9 ± 0.2 muscle lengths/s
Gene Expression (number), down-regulated (↓) vs. SHR-F [2, 8]: 42
Gene Expression (number), up-regulated (↑) vs. SHR-F [2, 8]: 99
number of identified genes down-regulated by treatment (overexpressed/induced with heart failure) ([2]; identified transcripts): 12
number of identified genes up-regulated by treatment (repressed with heart failure) ([2]; identified transcripts): 15
number of identified genes whose expression was reversed by treatment ([2]; identified transcripts, relative to un-treated SHR with failure): 27
number of genes whose change in expression was significantly reversed [2, 9]: 141
percentage of genes whose change in expression was significantly reversed [2, 9]: 9.8%
transcripts significantly modified with treatment ([2]; of heart failure-altered transcripts, p<0.01): < 2%
LV ejection fraction (LVEF), result in words [3]: minimal improvement; also recorded: no significant change
Fibrosis (%) [4]: 22.8 ± 3.1 %
LV/BW ratio, index of LV hypertrophy, result in words ([5]; FIG. 4A, SHR-F following 30 days of treatment): no significant reduction
RV/BW ratio, index of RV hypertrophy, result in words ([5]; FIG. 4B, SHR-F following 30 days of treatment): decreased with treatment
LV/body wt. (left ventricular to body weight ratio) [5, 10]: 3.3 ± 0.3^+ ratio
RV/body wt. (right ventricular to body weight ratio) [5, 10]: 0.86 ± 0.20^+ ratio
LV/Body Weight (ratio) ([5]; Table 3, SHR with heart failure, 30 days treatment, mean ± SD): 3.3 ± 0.4 ratio
